# Test results as given in EP1954678B1, “NOVEL NK1 AND NK2 ANTAGONISTS” (Abbott Products GmbH, priority 2005, dated 2007).
# Biological target: T1, cloned human NK2 receptors (Homo sapiens, UniProt P21452)
# T1 construct: expressed in transfected cells
# T1 sequence (P21452 1-398): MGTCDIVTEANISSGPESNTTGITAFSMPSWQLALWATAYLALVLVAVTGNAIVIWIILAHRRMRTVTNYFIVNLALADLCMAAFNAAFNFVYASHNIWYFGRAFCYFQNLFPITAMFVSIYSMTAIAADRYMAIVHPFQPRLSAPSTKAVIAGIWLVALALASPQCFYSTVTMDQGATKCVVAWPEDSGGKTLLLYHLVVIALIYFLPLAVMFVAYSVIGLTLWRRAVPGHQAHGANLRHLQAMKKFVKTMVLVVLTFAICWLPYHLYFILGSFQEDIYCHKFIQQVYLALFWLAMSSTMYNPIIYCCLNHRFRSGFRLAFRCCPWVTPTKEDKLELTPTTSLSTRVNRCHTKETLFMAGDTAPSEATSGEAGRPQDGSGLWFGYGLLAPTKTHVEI
# Assay: Ca2+ measurements using FLIPR for NK2 activity in CHO cells
# Format: cell-based
# Settings: NKA 10^-7 M as agonist; compound applied 7 min before; pA2 calculated from IC50
# Source text: The NK receptor is coupled to Gq.
# All steps were done under sterile conditions. […] The results are summarized in table 5: Table 5: pA2 data for NK1 and NK2: […]
compound,measurement,value
"CN(C[C@@H](CCN1CCN([C@@H](c2ccco2)[C@H](O)CO)CC1)c1ccc(Cl)c(Cl)c1)C(=O)c1cc(C#N)cc2ccccc12 [Compound 1, 3-cyano-N-[(2S)-2-(3,4-dichlorophenyl)-4-{4-[(1R,2S)-1-(2-furyl)-2,3-dihydroxypropyl]piperazin-1-yl}butyl]-N-methyl-1-naphthamide]",Kb,10 nM
